Experiments:
DH5α E. coli = assay: Live cell filter assay in culture media (Millipore NCM filter, scintillation counter); assay type: cell-based; conditions: for cell based signal over background signal: 10,000 cells incubated for 8 hours, Millipore NCM filter
Method: 10,000 cells were put into 2 ml of media (LB, SOB, SOC, DeTox™, or TB), and incubated for 8 hours at 37° C. and shaken at 250 rpm. The samples were then passed through the respective filters (Millipore and others) via a syringe, then the samples were washed with 40 ml of PBS via a syringe. The filter samples were counted using a scintillation counter.
Millipore NCM filters were also used in the live cell experiments. […] Moreover, LB and SOB media strongly potentiated the growth of the DH5α E. coli. The cell based signals are 42.78-fold and 82.63-fold, respectively, over background signal for these two media.
10,000, 50,000 or 100,000 DH5α cells were added into 1 ml SOB media, and 1 μl of 1.76 mM ^14C FIAU was added to the mixture to constitute a 1.76 μM solution. The mixture was incubated for 4 to 6 hours at 37° C. in an agitation incubator. After the incubation period, the mixture was passed through a 0.22 μm Millipore nitrocellulose filter. The filter was then washed with 40 ml of 1×PBS using a syringe. The CPM was determined using a scintillation counter.

DH5α (E. coli) cells = assay: Detection of cells spiked into human urine / SOB mix (filter assay); assay type: cell-based; conditions: 10,000 DH5α cells, 50% urine and 50% SOB mix, 1.76 μM, 5 hours
Method: In another set of experiments, 10,000 DH5α cells were added into 1 ml human urine. 1 ml of SOB media and 2 μl of 1.76 mM ^14C FIAU was added to the mixture to constitute a 1.76 μM solution. The mixture was incubated for 5 hours at 37° C. in an agitation incubator. After the incubation period, the mixture was passed through a 0.22 μm Millipore nitrocellulose filter. The filter was then washed with 40 ml of 1×PBS using a syringe. The CPM was determined using a scintillation counter. Thus, 10,000 DH5α (E. coli) cells were detectable in a 50% urine and 50% SOB mix in 5 hours.

DH5α cells = assay: Detection of cells spiked into rat CSF / SOB mix (filter assay); assay type: cell-based, E. coli; conditions: 10,000 cells, 50% CSF (rat) and 50% SOB, 1.76 μM, 5 hours or less
Method: An experiment was also performed to determine whether a shorter incubation period is possible. 10,000 DH5α cells were added into 1 ml rat CSF. 1 ml of SOB media and 2 μl of 1.76 mM ^14C FIAU was added to the mixture to constitute a 1.76 μM solution. The mixture was incubated for 5 hours at 37° C. in an agitation incubator. After the incubation period, the mixture was passed through a 0.22 μm Millipore nitrocellulose filter. The filter was then washed with 40 ml of 1×PBS using a syringe. The CPM was determined using a scintillation counter. Thus, 10,000 cells after 5 hours or less of incubation in a mixture containing 50% CSF and 50% SOB were detectable.

SMILES	cell based signal over background signal (DH5α E. coli; LB media) [fold]	cell based signal over background signal (DH5α E. coli; SOB media) [fold]	signal versus background (DH5α E. coli; 10,000 DH5α cells, 1 ml SOB, 1.76 μM (200 mCi/mmol), about 4 hours)	detectability of cells (DH5α (E. coli) cells)	detectability of cells (DH5α cells)
O=c1[nH]c(=O)n([C@@H]2O[C@H](CO)[C@@H](O)[C@@H]2F)cc1I [FIAU, 2′-fluoro-5-iodo-1-β-D-arabinofuranosyluracil]	42.78	82.63	–	–	–
O=c1[nH][14c](=O)n([C@@H]2O[C@H](CO)[C@@H](O)[C@@H]2F)cc1I [^14C-FIAU, ^14C-labeled 2′-fluoro-5-iodo-1-β-D-arabinofuranosyluracil]	–	–	signal above the background	detectable	detectable

Source: patent US20140228248A1, “METHODS AND COMPOSITIONS FOR DETECTING INFECTIONS” (BIOMED VALLEY DISCOVERIES, INC., priority 2011, published 2014)
